Square brackets hold non-standard residues; d marks the D form. Ends that are not written are not given here. Gla = N[C@@H](CC(C(=O)O)C(=O)O)C(=O)O
Legend:
[1] = Binding of rhodamine-labeled peptide to cortical bone; design: species or system sheep
Protocol: (§1) The native bone used were harvested from sheep tibia and bovine sternum. Cortical (compact) bone slices were collected from sheep tibia with periosteum removed, and trabecular (cancellous, spongy) bone cores were drilled out from bovine sternum under sterile conditions.
The peptide binding to native bones was tested in three different experiments. In the first experiment, the cortical bone slices were incubated in modular peptide solution (0.5 mL, PBS) with concentrations of 50, 100, 200 and 300 μg/mL. The incubation was continued in a static condition for a period of 0.5, 1, 2 and 3 hours. For another experiment, the trabecular bone cores were placed in the chamber of bone bioreactor where the peptide solution prepared in DMEM (100 μg/mL, 6.5 mL) was continuously circulated through the chamber for a time period of 2, 4, 6, 8 and 10 hours. In the last experiment, mBMP was bound in a spatially controlled manner by dip-coating, spotting or writing with mBMP solution on native bone tissues. Following each experiment, the bones were rinsed with PBS to remove unbound peptide and their fluorescence images were captured using a Typhoon fluorescence scanner (GE healthcare) or a Nikon Eclipse Ti inverted microscope. To quantify the fluorescence intensity, the images were converted into 8-bit using ImageJ to present the intensity level of each pixel in the range of 0 to 255. The mean pixel intensity of a selected region of interest was considered to be proportional to the amount of peptide bound.
To examine mBMP binding to cortical bone without periosteum (ca. 4 mm×7 mm×1.5 mm) from the shaft of sheep tibia, the bone tissue was incubated in mBMP solution prepared in phosphate buffered saline (PBS). The binding of mBMP was concentration-dependent for each incubation time tested (FIGS. 12 and 13A). The quantity of mBMP binding was proportional to the solution concentration, which was clearly observed through all concentrations at 0.5 hour. However, this dependence was not apparent at higher concentrations at later time points. […] The insignificant dependence on the incubation time is likely attributed to the rapid binding of mBMP to native bone tissue.

[2] = Binding of 5(6)-FAM-conjugated modular peptides to HA-coated PLG films; settings: 4 hr, 37° C.
Protocol: Poly (lactide-coglycolide) (PLG) films were prepared via a solvent casting process in which PLG (85:15) pellets were dissolved in chloroform (50 mg/ml), added to a PTFE dish, and dried for 2 days. The films were further dried at 50-55° C. for 4 hr to remove residual solvent and samples were cooled to room temperature. Square films (1 cm^2) were manually cut out of the resulting PLG film sheets. A “bone-like” HA-based material layer was grown on the PLG films using a direct deposition technique by biomimetic mineralization in modified simulated body fluid (mSBF).
To measure the binding efficiency of modular peptides to the HA-coated PLG films and to gain preliminary insight into the properties that influence modular peptide immobilization, 1 cm^2 HA-coated PLG films was first exposed to PBS solutions containing 500 μg (1 mg/ml) of 5(6) FAM-conjugated eBMP-2, eBGu1, eBGu3, eBGa1, or eBGa3 modular peptide solution (See Table 1 for definitions of these abbreviations). The films were incubated in peptide solutions with constant agitation for 4 hr at 37° C., and the amount of free peptide remaining was determined by measuring the fluorescence emission of the solution (excitation: 494 nm; emission 519 nm) using a Synergy HT Multi-Detection Microplate Reader (BioTek, Winooski, Vt.), and comparing this emission to standard samples with known concentrations of 5(6)-FAM. To further characterize surface immobilization of the peptide with the highest binding efficiency—the eBGa3 peptide-1 cm^2 HA-coated films were incubated in various concentrations (50-750 nM) of 5(6)-FAM-conjugated eBGa3 peptide for 4 hr with constant agitation at 37° C. The amount of peptide bound to HA-coated film was again determined by fluorescence analysis, as described above.

[3] = Release kinetics of modular peptides from HA-coated film; settings: after 70 days
Protocol: To quantify release kinetics of 5(6) FAM-conjugated modular peptides from HA-coated film, the films were first incubated in solutions containing 250 μM (˜500 μg) of each peptide (eBGu1, eBGu3, eBGa1, or eBGa3) to allow for binding (as described above), then incubated in 500 μl of PBS buffer at 37° C. with constant agitation for 5 days (eBGu1 and eBGu3 peptides) or 10 weeks (eBGa1 and eBGa3 peptides), respectively. Whole buffer solutions were changed at indicated time points and the amount of peptide released from the HA-coated film was determined via fluorescence analysis and comparison with standards containing known amounts of 5(6)-FAM. The fluorescent images of fluorescently-labeled peptides bound to HA-coated films were obtained using an Olympus IX51 fluorescence microscope (Olympus, Center Valley, Pa.).

[4] = Binding of rhodamine-labeled peptide to living trabecular bone cores in a bone bioreactor; design: species or system bovine; settings: 100 μg/mL in DMEM circulated, 2-10 hours
Protocol: as §1
The peptide binding to native bones was tested in three different experiments. In the first experiment, the cortical bone slices were incubated in modular peptide solution (0.5 mL, PBS) with concentrations of 50, 100, 200 and 300 μg/mL. The incubation was continued in a static condition for a period of 0.5, 1, 2 and 3 hours. […] Following each experiment, the bones were rinsed with PBS to remove unbound peptide and their fluorescence images were captured using a Typhoon fluorescence scanner (GE healthcare) or a Nikon Eclipse Ti inverted microscope. To quantify the fluorescence intensity, the images were converted into 8-bit using ImageJ to present the intensity level of each pixel in the range of 0 to 255. […]
mBMP binding to living trabecular bone cores (1 cm in diameter and 0.5 cm in thickness) harvested from bovine sternum was assessed. […] After incubating for various time periods, the binding was measured in terms of fluorescence intensity from rhodamine labeled mBMP. […]

Question: With “KIPKASSVPTELSAISTLYLAAAAγEPRRγEVAγEL (KIPKASSVPTELSAISTLYLAAAA[Gla]PRR[Gla]VA[Gla]L-NH2; N-terminus assumed; SMILES CC[C@H](C)[C@H](NC(=O)[C@H](C)NC(=O)[C@H](CO)NC(=O)[C@H](CC(C)C)NC(=O)[C@H](CCC(=O)O)NC(=O)[C@@H](NC(=O)[C@@H]1CCCN1C(=O)[C@@H](NC(=O)[C@H](CO)NC(=O)[C@H](CO)NC(=O)[C@H](C)NC(=O)[C@H](CCCCN)NC(=O)[C@@H]1CCCN1C(=O)[C@@H](NC(=O)[C@@H](N)CCCCN)[C@@H](C)CC)C(C)C)[C@@H](C)O)C(=O)N[C@@H](CO)C(=O)N[C@H](C(=O)N[C@@H](CC(C)C)C(=O)N[C@@H](Cc1ccc(O)cc1)C(=O)N[C@@H](CC(C)C)C(=O)N[C@@H](C)C(=O)N[C@@H](C)C(=O)N[C@@H](C)C(=O)N[C@@H](C)C(=O)N[C@@H](CC(C(=O)O)C(=O)O)C(=O)N1CCC[C@H]1C(=O)N[C@@H](CCCNC(=N)N)C(=O)N[C@@H](CCCNC(=N)N)C(=O)N[C@@H](CC(C(=O)O)C(=O)O)C(=O)N[C@H](C(=O)N[C@@H](C)C(=O)N[C@@H](CC(C(=O)O)C(=O)O)C(=O)N[C@@H](CC(C)C)C(N)=O)C(C)C)[C@@H](C)O) [eBGa3]” as the substance, how does the “dependence of binding to cortical bone on concentration and incubation time” value ([1]; 50-300 μg/mL in PBS, 0.5-3 hours) read?
Answer: concentration-dependent

Question: What about the “binding to bone surface after dip-coating” value ([1]; bone piece dip-coated in peptide solution) of the same substance?
Answer: significant amount of mBMP was found to bind

Question: What about the “fluorescence intensity of treated bone compared with rhodamine-treated group” value ([1]; rhodamine-labeled peptide, cortical bone) of the same substance?
Answer: higher fluorescence intensity

Question: And the “binding efficiency on the HA-coated PLG films” value ([2]; 500 μg (1 mg/ml) 5(6)-FAM-conjugated peptide in PBS, constant agitation)?
Answer: 55.9±2.2%

Question: And the “peptide amount at which bound amount reached saturation” value ([2]; HA-coated film)?
Answer: ~300 µg

Question: What about the “peptide concentration at which bound amount reached saturation” value ([2]; HA-coated film) of the same substance?
Answer: approximately 150 μM

Question: And the “initially bound peptide remaining bound” value [3]?
Answer: ~85%

Question: And the “peptide released from HA-coated films” value ([3]; PBS, 37° C.)?
Answer: 15.7±0.6%

Question: And the “incubation time at which binding reached a plateau” value [4]?
Answer: 4 h
